Data on three substances can be found in patent publication US20200353038A1, “PIF-TRANSFECTED CELLS AND METHODS OF USE” (BIOINCEPT, LLC, priority 2013, published 2020).

For one series, the system named is HEK293 cells. As to the kind of experiment: Transient transfection in HEK293 cells, toxicity. It is filed as cell-based, human. The following applies: intracellular expression, cultured for more than 72 hrs.
Another series concerns the target T1, IDE (Homo sapiens, UniProt P14735).
T1 construct: purchased Invitrogen
As to the kind of experiment: ProtoArray binding, IDE.

The subject of series [1] is 9000 human protein targets. As to the kind of experiment: Alexa-PIF interaction with ProtoArray Human Protein Microarrays v5.0. It is filed as binding. The following applies: PIF-Alexa 647 250 nM and 2.5 pM; protein not named.
A further series relates to Kv1.3b. As to the kind of experiment: ProtoArray binding, Kv1.3b. The arrangement: species or system human.
Kv1.3b, sequence (Q13303 40-367 limits assumed): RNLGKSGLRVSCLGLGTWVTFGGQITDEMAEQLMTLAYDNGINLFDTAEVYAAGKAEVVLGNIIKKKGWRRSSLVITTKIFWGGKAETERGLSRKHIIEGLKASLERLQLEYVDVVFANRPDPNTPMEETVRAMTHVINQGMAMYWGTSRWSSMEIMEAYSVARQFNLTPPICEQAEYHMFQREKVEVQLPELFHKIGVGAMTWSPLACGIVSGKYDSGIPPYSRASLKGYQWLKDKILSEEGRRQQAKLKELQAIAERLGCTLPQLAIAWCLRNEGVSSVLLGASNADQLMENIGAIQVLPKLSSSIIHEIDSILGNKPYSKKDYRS
The subject of the next series is PBMCs. The text has this:
Blood samples without identifiers were obtained from males and nonpregnant females after obtaining consent at MDSPS, WA. The studies were approved by the ethical committee at the institute. From the excess specimen, PBMCs were isolated using standard Ficoll Hypaque, a density gradient method. […] Samples were collected in duplicate at 24 and 48 hrs and used for global mRNA analysis.
After culture, PBMCs were collected and the chemically fragmented cRNA was then hybridized on Affymetrix HGU133 Plus 2.0 human chips in a GeneChip Hybridization Oven 640 (Affymetrix) and screened for 18,400 human genes and expressed-sequence tags, followed by fluorescence labeling with Fluidics Station 450 (Affymetrix) and optical scanning with an Affymetrix GeneChip Scanner 3000 (Codon Biosciences, LP, Houston, Tex.). P0.05 and >2-fold changes were considered as significant. Data is deposited at NCBI Geo (GSE18291).
For gene experiments, data was first analyzed using student's t-test, with p<0.05 results, followed by fold-change testing, with a cutoff 2-fold only reported.

Series [2] addresses Tissue-Specific Transplantation Antigen P35 (FX Enzyme) (Homo sapiens, UniProt Q13630). The following applies: ProtoArray. Here is the method: (§1) Unbound probe was washed off, and arrays were assessed by a fluorescence microarray scanner. […] As a negative control, an array was incubated with wash buffer while calmodulin kinase was used as a positive control detected by Alexa Fluor 647-conjugated anti-VS antibody.

In another series the target is NEK11 (Homo sapiens, UniProt Q8NG66). The following applies: ProtoArray, minor binding target. On the procedure:
as §1

The target in series [3] is outer dense fiber of the sperm tail-2 (ODF2L) (Homo sapiens, UniProt Q9ULJ1). The following applies: ProtoArray, minor binding target. Here is the method: as §1
outer dense fiber of the sperm tail-2 (ODF2L), sequence (Q9ULJ1 whole entry): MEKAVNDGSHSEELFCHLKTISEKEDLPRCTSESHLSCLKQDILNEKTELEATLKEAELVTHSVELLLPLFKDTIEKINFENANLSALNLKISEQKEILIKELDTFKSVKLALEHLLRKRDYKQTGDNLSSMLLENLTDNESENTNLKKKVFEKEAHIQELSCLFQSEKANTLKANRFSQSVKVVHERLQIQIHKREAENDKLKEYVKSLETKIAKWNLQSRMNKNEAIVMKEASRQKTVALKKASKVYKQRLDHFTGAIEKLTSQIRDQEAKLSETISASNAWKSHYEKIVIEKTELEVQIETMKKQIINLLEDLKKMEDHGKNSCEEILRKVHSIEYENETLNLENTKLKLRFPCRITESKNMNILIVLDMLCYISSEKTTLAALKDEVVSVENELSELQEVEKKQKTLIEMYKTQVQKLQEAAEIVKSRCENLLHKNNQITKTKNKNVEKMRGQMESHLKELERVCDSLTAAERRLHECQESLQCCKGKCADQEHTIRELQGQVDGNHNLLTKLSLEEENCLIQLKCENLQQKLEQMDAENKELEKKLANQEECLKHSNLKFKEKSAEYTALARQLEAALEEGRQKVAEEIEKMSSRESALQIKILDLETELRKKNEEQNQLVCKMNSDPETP
In the next series the target is ITK (Homo sapiens, UniProt Q08881). The following applies: ProtoArray. On the procedure: as §1
ITK, sequence (Q08881 whole entry): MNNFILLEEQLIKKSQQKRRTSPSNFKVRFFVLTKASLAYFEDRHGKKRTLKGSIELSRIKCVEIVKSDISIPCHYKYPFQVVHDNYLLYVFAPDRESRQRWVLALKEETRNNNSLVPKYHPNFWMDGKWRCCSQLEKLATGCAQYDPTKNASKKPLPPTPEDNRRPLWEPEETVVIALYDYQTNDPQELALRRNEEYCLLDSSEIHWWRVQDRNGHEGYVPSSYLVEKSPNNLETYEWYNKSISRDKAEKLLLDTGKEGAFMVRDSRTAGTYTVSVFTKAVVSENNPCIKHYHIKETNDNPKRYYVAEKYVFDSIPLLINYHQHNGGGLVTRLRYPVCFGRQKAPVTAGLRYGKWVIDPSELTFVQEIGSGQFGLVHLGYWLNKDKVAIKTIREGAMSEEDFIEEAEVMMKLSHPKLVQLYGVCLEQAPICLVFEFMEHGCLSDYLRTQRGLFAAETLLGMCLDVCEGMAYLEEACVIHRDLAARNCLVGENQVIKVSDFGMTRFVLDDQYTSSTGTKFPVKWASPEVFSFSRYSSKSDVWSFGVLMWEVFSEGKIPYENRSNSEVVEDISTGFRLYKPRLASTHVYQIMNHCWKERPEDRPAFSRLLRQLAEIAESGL
For the next series, the target named is Cass4 (Homo sapiens, UniProt Q9NQ75). The following applies: ProtoArray, minor binding target. Here is the method: as §1
Cass4, sequence (Q9NQ75 whole entry): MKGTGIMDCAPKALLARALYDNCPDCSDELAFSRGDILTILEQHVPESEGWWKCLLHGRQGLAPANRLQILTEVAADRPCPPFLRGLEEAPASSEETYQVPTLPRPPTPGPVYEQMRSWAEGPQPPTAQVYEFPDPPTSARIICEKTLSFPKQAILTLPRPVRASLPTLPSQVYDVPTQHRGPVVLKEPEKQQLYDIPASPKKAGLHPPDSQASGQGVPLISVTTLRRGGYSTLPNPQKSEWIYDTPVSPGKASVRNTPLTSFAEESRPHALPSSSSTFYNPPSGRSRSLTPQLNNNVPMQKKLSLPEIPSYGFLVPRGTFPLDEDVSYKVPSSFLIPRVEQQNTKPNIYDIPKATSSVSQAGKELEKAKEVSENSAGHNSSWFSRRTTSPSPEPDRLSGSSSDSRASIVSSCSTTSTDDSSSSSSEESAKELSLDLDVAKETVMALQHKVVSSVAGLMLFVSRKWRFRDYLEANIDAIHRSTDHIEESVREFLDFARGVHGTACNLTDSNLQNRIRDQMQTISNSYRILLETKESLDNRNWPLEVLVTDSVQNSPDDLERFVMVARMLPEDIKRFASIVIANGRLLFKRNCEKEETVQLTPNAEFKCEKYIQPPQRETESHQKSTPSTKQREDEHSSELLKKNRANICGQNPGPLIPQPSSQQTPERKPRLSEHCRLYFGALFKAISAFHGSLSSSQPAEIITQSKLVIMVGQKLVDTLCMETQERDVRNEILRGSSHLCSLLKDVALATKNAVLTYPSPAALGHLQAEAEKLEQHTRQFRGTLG
Series [4] has as its target Platelet-Derived Growth Factor-β(PDGFP) (Homo sapiens, UniProt P01127). The following applies: ProtoArray. On the procedure: as §1
Another series deals with DAPK3, (ZIPK) (Homo sapiens, UniProt O43293). The following applies: ProtoArray, minor binding target. Here is the method:
as §1

A further series addresses Clorf87 (Homo sapiens, UniProt Q8N0U7). The following applies: ProtoArray, minor binding target. On the procedure: as §1
In another series the test system is female Swiss mice. The following applies: Alzet pump subcutaneously, PIF 4.2 mg/ml (1 mg/kg/die), read days 14-16 pi. On the procedure: 30 Swiss female mice and 30 Swiss male mice, 8-10 weeks old, were matched overnight for three consecutive days. The next morning, the presence of a vaginal plug was verified. 20 female Swiss mice positive for the vaginal plug were selected for the experiment.
Mice at days 1-3 post-insemination (pi) were anesthetized with ketamine and domitor 200 μl. […] The mice were located singularly in separated cages. […] At days 6-8 pi, the mice were treated with LPS […] or with PBS. At days 14-16 pi, the mice were euthanized and investigated for vital fetuses and for aborts. Mice with no vital fetuses nor signs of abortion were considered to carry 10 aborts for statistical purposes. The groups were compared with Fisher exact test, p<0.05 was considered significant (FIG. 22).

Setting [5] is: cell state not given, PIF 50 nM.
[6] abbreviates: following co-activation (anti-CD3/anti-CD28), PIF 50 nM.
Where [7] appears, read: naive cells (by context), PIF 50 nM.
The mark [8] stands for this setting: naive cells, PIF 50 nM, up to 48 hrs.

NEK11, sequence (Q8NG66 whole entry): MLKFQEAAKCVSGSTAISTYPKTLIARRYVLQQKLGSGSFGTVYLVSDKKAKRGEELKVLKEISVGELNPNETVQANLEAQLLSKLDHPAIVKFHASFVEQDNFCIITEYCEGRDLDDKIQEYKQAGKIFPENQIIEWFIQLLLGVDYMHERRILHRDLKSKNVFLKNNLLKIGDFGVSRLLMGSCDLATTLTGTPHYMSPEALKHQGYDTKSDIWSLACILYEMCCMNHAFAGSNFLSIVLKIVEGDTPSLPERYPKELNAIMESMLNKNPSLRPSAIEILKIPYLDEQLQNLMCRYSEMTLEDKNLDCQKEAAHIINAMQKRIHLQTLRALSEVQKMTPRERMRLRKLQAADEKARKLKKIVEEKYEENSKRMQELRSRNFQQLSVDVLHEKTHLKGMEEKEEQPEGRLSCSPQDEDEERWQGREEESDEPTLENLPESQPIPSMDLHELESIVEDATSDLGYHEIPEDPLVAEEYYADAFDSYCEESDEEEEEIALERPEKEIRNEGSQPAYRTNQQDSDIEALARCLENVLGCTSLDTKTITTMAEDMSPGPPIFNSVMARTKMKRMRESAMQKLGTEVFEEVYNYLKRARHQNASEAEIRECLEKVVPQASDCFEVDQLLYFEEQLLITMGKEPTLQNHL
Clorf87, sequence (Q8N0U7 whole entry): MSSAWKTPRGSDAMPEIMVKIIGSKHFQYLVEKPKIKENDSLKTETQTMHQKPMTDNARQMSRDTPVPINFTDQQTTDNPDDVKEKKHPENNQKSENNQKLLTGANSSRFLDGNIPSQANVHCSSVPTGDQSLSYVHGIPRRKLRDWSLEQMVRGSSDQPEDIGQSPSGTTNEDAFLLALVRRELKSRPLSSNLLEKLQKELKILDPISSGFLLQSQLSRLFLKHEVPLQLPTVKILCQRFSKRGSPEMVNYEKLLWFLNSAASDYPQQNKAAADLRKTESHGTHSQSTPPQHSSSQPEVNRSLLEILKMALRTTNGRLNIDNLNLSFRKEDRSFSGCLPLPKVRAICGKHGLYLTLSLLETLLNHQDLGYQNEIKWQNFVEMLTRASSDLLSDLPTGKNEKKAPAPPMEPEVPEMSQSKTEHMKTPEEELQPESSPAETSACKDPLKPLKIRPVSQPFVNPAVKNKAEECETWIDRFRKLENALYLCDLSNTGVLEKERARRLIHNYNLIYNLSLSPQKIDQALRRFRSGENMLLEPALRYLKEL
DAPK3, (ZIPK), sequence (O43293 whole entry): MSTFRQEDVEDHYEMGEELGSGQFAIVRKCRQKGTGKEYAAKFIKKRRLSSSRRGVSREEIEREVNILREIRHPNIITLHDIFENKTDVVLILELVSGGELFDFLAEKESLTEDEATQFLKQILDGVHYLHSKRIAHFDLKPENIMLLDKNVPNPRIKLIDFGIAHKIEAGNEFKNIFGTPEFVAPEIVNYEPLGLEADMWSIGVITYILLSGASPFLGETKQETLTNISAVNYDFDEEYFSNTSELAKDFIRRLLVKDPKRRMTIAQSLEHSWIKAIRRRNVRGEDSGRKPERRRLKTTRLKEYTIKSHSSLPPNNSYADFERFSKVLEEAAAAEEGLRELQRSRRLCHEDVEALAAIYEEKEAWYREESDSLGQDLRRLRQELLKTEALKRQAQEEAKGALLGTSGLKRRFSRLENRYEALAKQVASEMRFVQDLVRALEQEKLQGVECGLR
Platelet-Derived Growth Factor-β(PDGFP), sequence (P01127 82-190): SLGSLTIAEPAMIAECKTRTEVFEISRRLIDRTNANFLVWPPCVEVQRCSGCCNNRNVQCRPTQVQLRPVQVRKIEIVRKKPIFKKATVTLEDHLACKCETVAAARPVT
Tissue-Specific Transplantation Antigen P35 (FX Enzyme), sequence (Q13630 whole entry): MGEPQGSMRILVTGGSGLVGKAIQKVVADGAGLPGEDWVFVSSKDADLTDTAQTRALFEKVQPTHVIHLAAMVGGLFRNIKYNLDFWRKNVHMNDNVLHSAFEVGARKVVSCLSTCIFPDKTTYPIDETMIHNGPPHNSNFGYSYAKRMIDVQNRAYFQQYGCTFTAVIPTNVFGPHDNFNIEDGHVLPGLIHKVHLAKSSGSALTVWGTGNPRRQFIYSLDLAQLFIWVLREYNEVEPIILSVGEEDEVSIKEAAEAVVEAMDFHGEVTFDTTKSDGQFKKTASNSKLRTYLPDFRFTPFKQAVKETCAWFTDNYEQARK

Consider “DYKDDDDKGGGMVRIKPGSANKPSDDGGYPYDVPDYA (FLAG-(Gly)2-PIF-(Gly)2-HA) [FLAG-HA tagged PIF peptide]”, for which the “toxicity or cell death of transfected cells” value in the series with HEK293 cells is “without signs of toxicity or cell death”.

Take “PIF-Alexa 647: Alexafluor647 conjugate of synthetic PIF (MVRIKPGSANKPSDD)”: the Z score entry with IDE (PIF-Alexa 647 250 nM and 2.5 pM) is given as “greater than 2”; in the series with Kv1.3b (Kv1.3b two variants, PIF-Alexa 647 250 nM and 2.5 pM) it was “greater than 2”. Moreover, in [1], the “Z-Score of one of the 11 interacting proteins” value is given as “greater than 3”.

Regarding MVRIKPGSANKPSDD [PIF], in the series on PBMCs (PBMCs exposed to PIF), the “IDE encoding gene expression” value was “not affected” and the “Kv1.3b channel genes expression” value is reported as “only minimally affected”. Also, in the series with PBMCs (PBMCs, PIF 50 nM), the “six additional macropain genes family members, expression (FIG. 21)” value is recorded as “upregulated”. The “ADAM 17 gene expression” value in the series with PBMCs (activated cells (by context), PIF 50 nM) was −2.2 fold. Further, in the series on PBMCs (activated cells, PIF 50 nM), the CDC42 gene expression is −2.2 fold, the MCM2 gene expression came to 2.8 fold, the “SPEC 1 gene expression” value is reported as −2.2 fold and the “TSTA3 (FX) gene expression” value stood at 3.6 fold. Also, in the series with PBMCs (activated cells, PIF 50 nM), the “cell division cycle 25A (CDC25A) gene expression” value turned out to be 6 fold and the osteonectin gene expression is reported as −2.2 fold. In the series on PBMCs (setting [5]), the “H2A O/L gene expression (decrease)” value is on record as 2 fold, the “H2A gene expression (decrease)” value is listed as 4.2 fold and the H3F3A gene expression is listed as −3 fold. Also, in the series on PBMCs (following activation, PIF 50 nM), the ATP1B1 gene expression is given as −2.4 fold. Moreover, in the series on PBMCs (setting [6]), the IGFBP6 gene expression is reported as −2.4 fold; the “UDP-glucose dehydrogenase (UGDH) gene expression” value is recorded as −2 fold; the “insulin receptor (INSR) gene expression” value was −2.8 fold; the “macropain 26S subunit, non-ATPase, 10 (PSMD10) gene expression” value amounted to 2.4 fold. Also, in the series with PBMCs (setting [7]), the SCN12 gene expression is recorded as 5.4 fold and the “SCNA1 (Na+ voltage-gated Al) gene expression” value came out at 7.8 fold. Besides, the “ITK expression, in words” value in the series with PBMCs (naive cells as printed (last sentence of b342)) is “mildly decreased”. In the series with PBMCs (naive cells, PIF 50 nM), the ITK gene expression is listed as 1.6 fold and the “K+ channel (KCNK4) gene expression” value is recorded as 2.8 fold. Moreover, in the series with PBMCs (setting [8]), the “IGF-binding protein-3 (IGF219 BP3) gene expression” value is recorded as 4.6 fold and the “insulin-like growth factor-1 (IGF1) gene expression” value came to 2.8 fold. For the same substance, at IDE (ProtoArray), the “binding to IDE, in words” value is reported as “prime PIF peptide target”. Further, in series [2], the “binding to FX enzyme, in words” value is “Targets”. Moreover, at NEK11, the “binding to NEK11, in words” value is recorded as “bind”. For the same substance, in series [3], the “binding to ODF2L, in words” value was “observed”. Further, on ITK, the “binding to ITK, in words” value was “Targets”. In addition, on Cass4, the “binding to Cass4, in words” value was “target”. Moreover, in series [4], the “binding to PDGFb, in words” value is “Targets”. Besides, the “binding to DAPK3 (ZIPK), in words” value on DAPK3, (ZIPK) is given as “targets”. Further, on Clorf87, the “binding to Clorf87, in words” value is “target”. Besides, the LPS-induced abortion entry in the series on female Swiss mice (LPS 0.1 pg/gr days 6-8 pi) was “decreases”. Moreover, the anesthesia-induced abortion entry in the series with female Swiss mice (ketamine and domitor) is “prevents”. For the same substance, the “binding to Kv1.3b channels, in words” value with Kv1.3b (ProtoArray) is on record as “targets”.
